Results: US20140213648A1, “METHODS OF INCREASING EPA BLOOD LEVELS” (priority 2012, published 2014)

Experiment: 12-week placebo-controlled study: red blood cell fatty acid concentrations, ratios and proportions (GC/FID)
Type: in vivo, human
Settings: for AA red blood cell concentration, change from baseline (LS mean (SE)) / AA red blood cell concentration, end-of-treatment (mean) / DHA red blood cell concentration, change from baseline (LS mean (SE)) / DHA red blood cell concentration, end-of-treatment (mean) / Linoleic red blood cell concentration, change from baseline (LS mean (SE)) / Linoleic red blood cell concentration, end-of-treatment (mean) / Oleic red blood cell concentration, change from baseline (LS mean (SE)) / Oleic red blood cell concentration, end-of-treatment (mean) / Palmitic red blood cell concentration, change from baseline (LS mean (SE)) / Palmitic red blood cell concentration, end-of-treatment (mean) / Proportion of monounsaturated fatty acids to total fatty acids in RBCs, change from baseline (LS mean (SE)) / Proportion of monounsaturated fatty acids to total fatty acids in RBCs, end-of-treatment (mean (SD)) / Proportion of saturated fatty acids to total fatty acids in RBCs, change from baseline (LS mean (SE)) / Proportion of saturated fatty acids to total fatty acids in RBCs, end-of-treatment (mean (SD)) / Proportion of total omega-3 fatty acids to total fatty acids in RBCs, change from baseline (LS mean (SE)) / Proportion of total omega-3 fatty acids to total fatty acids in RBCs, end-of-treatment (mean (SD)) / Proportion of total omega-6 fatty acids to total fatty acids in RBCs, change from baseline (LS mean (SE)) / Proportion of total omega-6 fatty acids to total fatty acids in RBCs, end-of-treatment (mean (SD)) / Ratio of AA/EPA in red blood cells, change from baseline (LS mean (SE)) / Ratio of AA/EPA in red blood cells, end-of-treatment (mean) / Ratio of n-3/n-6 FA in red blood cells, change from baseline (LS mean (SE)) / Ratio of n-3/n-6 FA in red blood cells, end-of-treatment (mean) / Stearic red blood cell concentration, change from baseline (LS mean (SE)) / Stearic red blood cell concentration, end-of-treatment (mean): week 12
Procedure: A multi-center, placebo-controlled randomized, double-blind, 12-week study with an open-label extension is performed to evaluate the efficacy and safety of AMR101 in patients with fasting triglyceride levels ≧500 mg/dL. The primary objective of the study is to determine the efficacy of AMR101 2 g daily and 4 g daily, compared to placebo, in lowering fasting TG levels in patients with fasting TG levels ≧500 mg/dL and ≦1500 mg/dL (≧5.65 mmol/L and ≦16.94 mmol/L).
Eligible patients will be randomly assigned at Visit 4 (Week 0) to receive orally AMR101 2 g daily, AMR101 4 g daily, or placebo for the 12-week double-blind treatment period. AMR101 is provided in 1 g liquid-filled, oblong, gelatin capsules. The matching placebo capsule is filled with light liquid paraffin and contains 0 g of AMR101. During the double-blind treatment period, patients will take 2 capsules (AMR101 or matching placebo) in the morning and 2 in the evening for a total of 4 capsules per day. Patients in the AMR101 2 g/day treatment group will receive 1 AMR101 1 g capsule and 1 matching placebo capsule in the morning and in the evening. Patients in the AMR101 4 g/day treatment group will receive 2 AMR101 1 g capsules in the morning and evening.
Lipids were extracted from plasma and RBC suspensions and converted into fatty acid methyl esters for analysis using a standard validated gas chromatography/flame ionization detection method. Fatty acid parameters were compared between EPA treatment groups and placebo using an ANCOVA model with treatment, gender, type of statin therapy, and presence of diabetes as factors, and the baseline parameter value as a covariate. LSMs, SEs, and 2-tailed 95% confidence intervals for each treatment group and for each comparison were determined.

[1] = 2 g/day vs placebo, week 12, P <0.0001
[2] = 4 g/day vs placebo, week 12, P <0.0001

## CC/C=C\C/C=C\C/C=C\C/C=C\C/C=C\CCCC(=O)OCC [IPE, Icosapent ethyl]
2 g/day or 4 g/day, 12 weeks
  Dose dependence of EPA concentration in RBCs (in words): significantly increased EPA concentrations in a linear, dose-dependent fashion
2 g/day vs placebo, week 12, P 0.0008
  AA red blood cell concentration, mean placebo-adjusted percent change from baseline: −8.0%
2 g/day vs placebo, week 12, P 0.0014
  Proportion of total omega-6 fatty acids to total fatty acids in RBCs, mean placebo-adjusted percent change from baseline: −13.2%
2 g/day vs placebo, week 12, P 0.0435
  Proportion of monounsaturated fatty acids to total fatty acids in RBCs, mean placebo-adjusted percent change from baseline: −3.1%
2 g/day vs placebo, week 12, P 0.1183
  Proportion of total omega-3 fatty acids to total fatty acids in RBCs, mean placebo-adjusted percent change from baseline: 23.8%
2 g/day vs placebo, week 12, P 0.1278
  Linoleic red blood cell concentration, mean placebo-adjusted percent change from baseline: −4.7%
2 g/day vs placebo, week 12, P 0.3278
  Proportion of saturated fatty acids to total fatty acids in RBCs, mean placebo-adjusted percent change from baseline: 1.1%
2 g/day vs placebo, week 12, P 0.3736
  Oleic red blood cell concentration, mean placebo-adjusted percent change from baseline: −2.1%
2 g/day vs placebo, week 12, P 0.5859
  DHA red blood cell concentration, mean placebo-adjusted percent change from baseline: −1.8%
2 g/day vs placebo, week 12, P 0.5886
  Stearic red blood cell concentration, mean placebo-adjusted percent change from baseline: 1.1%
2 g/day vs placebo, week 12, P 0.9465
  Palmitic red blood cell concentration, mean placebo-adjusted percent change from baseline: −0.1%
[1]
  Ratio of AA/EPA in red blood cells, mean placebo-adjusted percent change from baseline: −91.1%
  Ratio of n-3/n-6 FA in red blood cells, mean placebo-adjusted percent change from baseline: 65.5%
2 g/day
  AA red blood cell concentration, change from baseline (LS mean (SE)): −20.9 (3.2)
  AA red blood cell concentration, end-of-treatment (mean): 160.3
  DHA red blood cell concentration, change from baseline (LS mean (SE)): −7.3 (1.5)
  DHA red blood cell concentration, end-of-treatment (mean): 51.5
  Linoleic red blood cell concentration, change from baseline (LS mean (SE)): −10.7 (4.7)
  Linoleic red blood cell concentration, end-of-treatment (mean): 169.6
  Oleic red blood cell concentration, change from baseline (LS mean (SE)): −1.4 (4.1)
  Oleic red blood cell concentration, end-of-treatment (mean): 213.0
  Palmitic red blood cell concentration, change from baseline (LS mean (SE)): −2.9 (5.4)
  Palmitic red blood cell concentration, end-of-treatment (mean): 341.7
  Proportion of monounsaturated fatty acids to total fatty acids in RBCs, change from baseline (LS mean (SE)): −0.1 (0.3) mol %
  Proportion of monounsaturated fatty acids to total fatty acids in RBCs, end-of-treatment (mean (SD)): 20.0 (1.9) mol %
  Proportion of saturated fatty acids to total fatty acids in RBCs, change from baseline (LS mean (SE)): 0.3 (0.4) mol %
  Proportion of saturated fatty acids to total fatty acids in RBCs, end-of-treatment (mean (SD)): 44.4 (3.0) mol %
  Proportion of total omega-3 fatty acids to total fatty acids in RBCs, change from baseline (LS mean (SE)): 2.6 (0.3) mol %
  Proportion of total omega-3 fatty acids to total fatty acids in RBCs, end-of-treatment (mean (SD)): 8.7 (2.2) mol %
  Proportion of total omega-6 fatty acids to total fatty acids in RBCs, change from baseline (LS mean (SE)): −2.9 (0.4) mol %
  Proportion of total omega-6 fatty acids to total fatty acids in RBCs, end-of-treatment (mean (SD)): 27.0 (3.3) mol %
  Ratio of AA/EPA in red blood cells, change from baseline (LS mean (SE)): −17.7 (0.9)
  Ratio of AA/EPA in red blood cells, end-of-treatment (mean): 5.2
  Ratio of n-3/n-6 FA in red blood cells, change from baseline (LS mean (SE)): 0.12 (0.010)
  Ratio of n-3/n-6 FA in red blood cells, end-of-treatment (mean): 0.33
  Stearic red blood cell concentration, change from baseline (LS mean (SE)): −4.7 (2.9)
  Stearic red blood cell concentration, end-of-treatment (mean): 179.0
4 g/day vs placebo, week 12, P 0.0008
  Proportion of total omega-3 fatty acids to total fatty acids in RBCs, mean placebo-adjusted percent change from baseline: 53.4%
4 g/day vs placebo, week 12, P 0.0154
  Proportion of monounsaturated fatty acids to total fatty acids in RBCs, mean placebo-adjusted percent change from baseline: −3.9%
4 g/day vs placebo, week 12, P 0.1145
  Proportion of saturated fatty acids to total fatty acids in RBCs, mean placebo-adjusted percent change from baseline: 1.9%
4 g/day vs placebo, week 12, P 0.1216
  DHA red blood cell concentration, mean placebo-adjusted percent change from baseline: −5.2%
4 g/day vs placebo, week 12, P 0.1325
  Oleic red blood cell concentration, mean placebo-adjusted percent change from baseline: −3.7%
4 g/day vs placebo, week 12, P 0.7427
  Palmitic red blood cell concentration, mean placebo-adjusted percent change from baseline: −0.7%
4 g/day vs placebo, week 12, P 0.7565
  Stearic red blood cell concentration, mean placebo-adjusted percent change from baseline: −0.7%
[2]
  AA red blood cell concentration, mean placebo-adjusted percent change from baseline: −15.7%
  Linoleic red blood cell concentration, mean placebo-adjusted percent change from baseline: −13.0%
  Proportion of total omega-6 fatty acids to total fatty acids in RBCs, mean placebo-adjusted percent change from baseline: −17.3%
  Ratio of AA/EPA in red blood cells, mean placebo-adjusted percent change from baseline: −102%
  Ratio of n-3/n-6 FA in red blood cells, mean placebo-adjusted percent change from baseline: 106.9%
4 g/day
  AA red blood cell concentration, change from baseline (LS mean (SE)): −36.2 (3.4)
  AA red blood cell concentration, end-of-treatment (mean): 148.8
  DHA red blood cell concentration, change from baseline (LS mean (SE)): −9.7 (1.6)
  DHA red blood cell concentration, end-of-treatment (mean): 51.7
  Linoleic red blood cell concentration, change from baseline (LS mean (SE)): −25.0 (4.9)
  Linoleic red blood cell concentration, end-of-treatment (mean): 164.7
  Oleic red blood cell concentration, change from baseline (LS mean (SE)): −5.6 (4.1)
  Oleic red blood cell concentration, end-of-treatment (mean): 208.3
  Palmitic red blood cell concentration, change from baseline (LS mean (SE)): −5.8 (5.7)
  Palmitic red blood cell concentration, end-of-treatment (mean): 340.6
  Proportion of monounsaturated fatty acids to total fatty acids in RBCs, change from baseline (LS mean (SE)): −0.2 (0.3) mol %
  Proportion of monounsaturated fatty acids to total fatty acids in RBCs, end-of-treatment (mean (SD)): 19.5 (1.9) mol %
  Proportion of saturated fatty acids to total fatty acids in RBCs, change from baseline (LS mean (SE)): 0.6 (0.4) mol %
  Proportion of saturated fatty acids to total fatty acids in RBCs, end-of-treatment (mean (SD)): 44.5 (2.5) mol %
  Proportion of total omega-3 fatty acids to total fatty acids in RBCs, change from baseline (LS mean (SE)): 4.1 (0.3) mol %
  Proportion of total omega-3 fatty acids to total fatty acids in RBCs, end-of-treatment (mean (SD)): 10.4 (2.3) mol %
  Proportion of total omega-6 fatty acids to total fatty acids in RBCs, change from baseline (LS mean (SE)): −4.7 (0.5) mol %
  Proportion of total omega-6 fatty acids to total fatty acids in RBCs, end-of-treatment (mean (SD)): 25.5 (2.9) mol %
  Ratio of AA/EPA in red blood cells, change from baseline (LS mean (SE)): −19.9 (1.0)
  Ratio of AA/EPA in red blood cells, end-of-treatment (mean): 3.1
  Ratio of n-3/n-6 FA in red blood cells, change from baseline (LS mean (SE)): 0.20 (0.011)
  Ratio of n-3/n-6 FA in red blood cells, end-of-treatment (mean): 0.42
  Stearic red blood cell concentration, change from baseline (LS mean (SE)): −8.2 (3.1)
  Stearic red blood cell concentration, end-of-treatment (mean): 178.1
